ChEMBL document CHEMBL5500324, “The potential of marine-derived piperazine alkaloids: Sources, structures and bioactivities” (Eur J Med Chem, 2024)
≈ marks a conversion by molar mass, not a printed value.

Key:
[1] = system: P388; assay: Cytotoxicity against mouse P388 cells assessed as reduction in cell viability; format: functional; conditions: read-out: ED50 (the source's name)
[2] = system: U-937; assay: Cytotoxicity against human U-937 cells assessed as reduction in cell growth incubated for 48 hrs by CCK-8 assay; format: functional, cell-based; conditions: U-937, 48 h
[3] = system: DU-145; assay: Cytotoxicity against human DU-145 cells assessed as cell growth inhibition measured after 48 hrs by MTT assay; format: functional, cell-based; conditions: DU-145, 48 h
[4] = system: QG-56; assay: Cytotoxicity against human QG-56 cells assessed as reduction in cell growth incubated for 24 hrs by MTT assay; format: functional, cell-based; conditions: QG-56, 24 h
[5] = system: HCT-116; assay: Antiproliferative activity against human HCT-116 cells assessed as reduction in cell viability incubated for 24 hrs by MTT assay; format: functional, cell-based; conditions: HCT-116, 24 h
[6] = system: P388; assay: Cytotoxicity against mouse P388 cells; format: functional; conditions: read-out: ED50 (the source's name)
[7] = system: A549; assay: Cytotoxicity against human A549 cells assessed as inhibition of cell growth; format: functional, cell-based
[8] = system: P388; assay: Cytotoxicity against mouse P388 cells assessed as inhibition of cell growth; format: functional, cell-based
[9] = system: SK-MEL-28; assay: Cytotoxicity against human SK-MEL-28 cells assessed as inhibition of cell growth; format: functional, cell-based
[10] = system: HT-29; assay: Cytotoxicity against human HT-29 cells assessed as inhibition of cell growth; format: functional, cell-based
[11] = system: NCI-H460; assay: Cytotoxicity against human NCI-H460 cells assessed as reduction in cell growth incubated for 48 hrs by SRB assay; format: functional, cell-based; conditions: NCI-H460, 48 h
[12] = system: MCF7; assay: Cytotoxicity against human MCF7 cells assessed as reduction in cell growth incubated for 48 hrs by SRB assay; format: functional, cell-based; conditions: MCF7, 48 h
[13] = system: SF-268; assay: Cytotoxicity against human SF-268 cells assessed as reduction in cell growth incubated for 48 hrs by SRB assay; format: functional, cell-based; conditions: SF-268, 48 h
[14] = system: HepG2; assay: Cytotoxicity against human HepG2 cells assessed as reduction in cell growth incubated for 48 hrs by SRB assay; format: functional, cell-based; conditions: HepG2, 48 h
[15] = system: MDA-MB-231; assay: Antiproliferative activity against human MDA-MB-231 cells assessed as reduction in cell viability incubated for 72 hrs by SRB assay; format: functional, cell-based; conditions: MDA-MB-231, 72 h
[16] = system: HT-29; assay: Antiproliferative activity against human HT-29 cells assessed as reduction in cell viability incubated for 72 hrs by SRB assay; format: functional, cell-based; conditions: HT-29, 72 h
[17] = system: A549; assay: Antiproliferative activity against human A549 cells assessed as reduction in cell viability incubated for 72 hrs by SRB assay; format: functional, cell-based; conditions: A549, 72 h
[18] = system: Bel-7402; assay: Cytotoxicity against human Bel-7402 cells assessed as reduction in cell viability measured for 48 hrs by MTT assay; format: functional, cell-based; conditions: Bel-7402, 48 h
[19] = system: HL-60; assay: Cytotoxicity against human HL-60 cells assessed as reduction in cell viability by MTT assay; format: functional, cell-based
[20] = system: A549; assay: Cytotoxicity against human A549 cells assessed as reduction in cell viability measured for 48 hrs by MTT assay; format: functional, cell-based; conditions: A549, 48 h
[21] = system: MOLT-4; assay: Cytotoxicity against human MOLT-4 cells assessed as reduction in cell viability by MTT assay; format: functional, cell-based

SMILES: CC(C)[C@]12SSS[C@]3(C(=O)N1C)[C@@H](O)C1(c4c[nH]c5ccccc45)c4ccccc4N[C@@H]1N3C2=O (some centres not stated)
- EC50 [1]: 46 ng/mL (≈ 87.7 nM)

SMILES: COc1ccc2c3c([nH]c2c1)[C@H](C=C(C)C)N1C(=O)[C@@H]2CCCN2C(=O)[C@]1(O)C3
- IC50 [2]: 18.2 µM

SMILES: COC1=C(C)C(=O)C2=C(C1=O)[C@H](CO)N1[C@@H](C#N)[C@@H]3[C@@H](O)c4c(O)c(C)c(OC)c(O)c4[C@H]([C@@H]1C2)N3C
- IC50 [3]: 0.448 µM
- IC50 [4]: 0.618 µM
- IC50 [5]: 0.455 µM

SMILES: CC(C)[C@]12SSSS[C@]3(C(=O)N1C)[C@@H](O)C1(C45c6ccccc6N[C@H]4N4C(=O)[C@@]6(C(C)C)SS[C@]4(C(=O)N6C)[C@H]5O)c4ccccc4N[C@@H]1N3C2=O (some centres not stated)
- EC50 [6]: 2.1 ng/mL (≈ 2.57 nM)

SMILES: C/C=C(/C)C(=O)OC[C@H]1C2=C(C[C@H]3[C@H]4C5=C(C[C@@H]([C@H](C#N)N13)N4C)C(=O)C(C)=C(OC)C5=O)C(=O)C(C)=C(OC)C2=O [RENIERAMYCIN M]
- IC50 [3]: 0.019 µM
- IC50 [4]: 0.00076 µM

SMILES: CC(C)[C@]12SS[C@]3(C(=O)N1C)[C@@H](O)C1(C45c6ccccc6N[C@H]4N4C(=O)[C@@]6(C(C)C)SS[C@]4(C(=O)N6C)[C@H]5O)c4ccccc4N[C@@H]1N3C2=O (some centres not stated)
- EC50 [6]: 3.8 ng/mL (≈ 5.05 nM)

SMILES: CO[C@@]12C(=O)N(C)[C@@H](CO)C(=O)N1[C@@H]1Nc3ccccc3C1(C13c4ccccc4N[C@@H]1N1C(=O)[C@@]4(C(C)C)SS[C@]1(C(=O)N4C)[C@H]3O)[C@@H]2O (some centres not stated)
- EC50 [6]: 1400 ng/mL (≈ 1980 nM)

SMILES: COc1c(C)cc2c(c1O)[C@@H]1N[C@H](C2)[C@H](O)N2[C@H]1[C@@H]1SC[C@H](N)C(=O)OC[C@H]2c2c(O)c(OC)c(C)c(OC(C)=O)c21
- IC50 [7]: 10 ng/mL (≈ 16.6 nM)
- IC50 [8]: 10 µM
- IC50 [9]: 5 ng/mL (≈ 8.31 nM)
- IC50 [10]: 10 ng/mL (≈ 16.6 nM)

SMILES: CC(C)[C@]12SS[C@]3(C(=O)N1C)[C@@H](O)C1(c4c[nH]c5ccccc45)c4ccccc4N[C@@H]1N3C2=O (some centres not stated)
- EC50 [1]: 86 ng/mL (≈ 175 nM)

SMILES: CS[C@]1(CO)C(=O)n2c(cc3ccccc32)C(=O)N1C
- IC50 [11]: > 100 µM
- IC50 [12]: 29.5 µM
- IC50 [13]: 35.7 µM
- IC50 [14]: 28.9 µM

SMILES: CN1C[C@@H](c2c[nH]c3cc(Br)ccc23)NC[C@@H]1c1c[nH]c2cc(Br)ccc12
- IC50 [15]: 3.8 µM
- IC50 [16]: 3.3 µM
- IC50 [17]: 3.1 µM

SMILES: C=C(C)[C@@H](O)Cn1c2c(c3ccc(OC)cc31)[C@H](O)[C@@]1(O)C(=O)N3CCC[C@H]3C(=O)N1[C@H]2C=C(C)C
- IC50 [18]: 7 µM
- IC50 [19]: 3.4 µM
- IC50 [20]: 11 µM
- IC50 [21]: 11 µM

SMILES: COc1c(C)cc2c(c1O)[C@H]1[C@@H]3[C@@H]4SC[C@H](N)C(=O)OC[C@@H](c5c(O)c(OC)c(C)c(OC(C)=O)c54)N3[C@@H](O)[C@@H](C2)N1C
- IC50 [7]: 2 ng/mL (≈ 3.25 nM)
- IC50 [8]: 2 µM
- IC50 [9]: 2 ng/mL (≈ 3.25 nM)
- IC50 [10]: 2 ng/mL (≈ 3.25 nM)

SMILES: CSS[C@@]1(C(C)C)C(=O)N2C(=CC3(C45c6ccccc6N[C@H]4N4C(=O)[C@H](CO)N(C)C(=O)[C@@]4(O)[C@H]5O)c4ccccc4N[C@H]23)C(=O)N1C (some centres not stated)
- EC50 [6]: 1100 ng/mL (≈ 1590 nM)

SMILES: CN1C[C@@H](c2c[nH]c3cc(Br)ccc23)NC[C@@H]1c1c[nH]c2ccccc12
- IC50 [15]: 4.7 µM
- IC50 [16]: 3.3 µM
- IC50 [17]: 2.7 µM

SMILES: CC(C)[C@]12SS[C@]3(C(=O)N1C)[C@@H](O)C1(C45c6ccccc6N[C@H]4N4C(=O)[C@@]6(CO)SSS[C@]4(C(=O)N6C)[C@H]5O)c4ccccc4N[C@@H]1N3C2=O (some centres not stated)
- EC50 [1]: 2.4 ng/mL (≈ 3.1 nM)

SMILES: COc1ccc2c(c1)N(CC=C(C)C)C(=O)[C@]21[C@H](C=C(C)C)N2C(=O)[C@]3(O)CCCN3C(=O)[C@]2(O)[C@H]1O
- IC50 [18]: 17.5 µM
- IC50 [19]: 45 µM
- IC50 [20]: 35.5 µM
- IC50 [21]: 25.7 µM

SMILES: CC(C)[C@]12SSSS[C@]3(C(=O)N1C)[C@@H](O)C1(C45c6ccccc6N[C@H]4N4C(=O)[C@@]6(CO)SS[C@]4(C(=O)N6C)[C@H]5O)c4ccccc4N[C@@H]1N3C2=O (some centres not stated)
- EC50 [6]: 3 ng/mL (≈ 3.73 nM)

SMILES: CC(C)[C@]12SS[C@]3(C(=O)N1C)[C@@H](O)C1(C45c6ccccc6N[C@H]4N4C(=O)[C@@]6(CO)SS[C@]4(C(=O)N6C)[C@H]5O)c4ccccc4N[C@@H]1N3C2=O (some centres not stated)
- EC50 [1]: 1.75 ng/mL (≈ 2.36 nM)

SMILES: CC(C)[C@]12SSS[C@]3(C(=O)N1C)[C@@H](O)C1(C45c6ccccc6N[C@H]4N4C(=O)[C@@]6(CO)SS[C@]4(C(=O)N6C)[C@H]5O)c4ccccc4N[C@@H]1N3C2=O (some centres not stated)
- EC50 [6]: 4.4 ng/mL (≈ 5.69 nM)
